Results taken from patent US20250269041A1, “Mutual Prodrugs of Cromoglicic Acid” (Samdolite Pharmaceuticals, Inc., priority 2022, published 2025).
Read-outs that look alike come from different tables or passages of the source.

Legend:
[1] = Protocol: Shed snakeskin, which is a model membrane to human skin used for preliminary permeability studies due to its similarity in composition to the human stratum corneum, was used as a skin model. The solution in the receiver compartment was maintained at 37° C. and stirred at 500 rpm with a magnetic stirrer. Before each experiment, the shed snakeskin was hydrated in 7.4 pH Dulbecco's Phosphate Buffered Saline (DPBS) containing 0.1% sodium azide solution for 24 hours at room temperature.
To emulate the esterase activity of human skin, a “sandwich” of shed snakeskin from a black rat snake (Pantherophis obsoletus) and a dialysis membrane with a molecular weight cut-off of 3.5 kDa (Cole-Palmer, Spectra Por S/P 3 EW-02900-04) was designed. Recombinant Human Carboxylesterase 2/CES2 (R&D Systems, #5657-CE) at a concentration 50 μg/mL was added between the snakeskin and the dialysis membrane (FIG. 1). A diffusion area of 0.64 cm^2 and a volume of 2 mL in the donor and receiver compartments were used. The temperature in Franz cell was controlled via thermocouple probe IT-23 (World Precision Instruments, Sarasota, FL, USA) placed in receiver compartment below the membrane “sandwich” through the sampling arm. All tested compounds were solubilized in 50% polyethylene glycol 400 (PEG 400)/DPBS at 25 mg/mL. PEG 400 was used to increase the water solubility of diethyl cromoglycate, cetirizine ethyl ester and cetirizine cromoglycate.
The system was allowed to equilibrate for one hour before each experiment. […] The receiver compartment was filled with 2 mL of 50% w/w polyethylene glycol 400 in DPBS to maintain a sink condition in the receiver solution. A sample was manually taken at 1-hour intervals from the receptor compartment and replaced with fresh DPBS at each time point. The concentration of drugs and their cumulative amount was plotted against time. Each experiment with each compound was performed in triplicate. The amount of the drug in the sample was estimated spectrophotometrically (NanoDrop™ UV-Visible spectrophotometer, Thermo Fisher Scientific Inc.). Light absorption was plotted as a function of concentration and fitted with a linear regression equation.

[2] = normal pH of 7.4; cited from earlier work
[3] = black rat snake (Pantherophis obsoletus), 0 h, 25 mg/mL
[4] = black rat snake (Pantherophis obsoletus), 25 mg/mL
[5] = black rat snake (Pantherophis obsoletus), 1 h, 25 mg/mL
[6] = black rat snake (Pantherophis obsoletus), 2 h, 25 mg/mL
[7] = black rat snake (Pantherophis obsoletus), 3 h, 25 mg/mL
[8] = black rat snake (Pantherophis obsoletus), 4 h, 25 mg/mL
[9] = black rat snake (Pantherophis obsoletus), 5 h, 25 mg/mL
[10] = black rat snake (Pantherophis obsoletus), 6 h, 25 mg/mL
[11] = black rat snake (Pantherophis obsoletus), 7 h, 25 mg/mL
[12] = black rat snake (Pantherophis obsoletus), 8 h, 25 mg/mL
[13] = black rat snake (Pantherophis obsoletus), 9 h, 25 mg/mL
[14] = black rat snake (Pantherophis obsoletus), 10 h, 25 mg/mL
[15] = black rat snake (Pantherophis obsoletus), 11 h, 25 mg/mL
[16] = black rat snake (Pantherophis obsoletus), 12 h, 25 mg/mL

| mean lag times across shed snakeskin [1] [h] | Cumulative concentration per unit area [1, 3] [μg/cm^2] | permeation across the shed snakeskin, times lower than the permeation of the lipophilic prodrug [1, 4] | Cumulative concentration per unit area [1, 5] [μg/cm^2] | Cumulative concentration per unit area [1, 6] [μg/cm^2] | Cumulative concentration per unit area [1, 7] [μg/cm^2] | Cumulative concentration per unit area [1, 8] [μg/cm^2] | Cumulative concentration per unit area [1, 9] [μg/cm^2] | Cumulative concentration per unit area [1, 10] [μg/cm^2] | Cumulative concentration per unit area [1, 11] [μg/cm^2] | Cumulative concentration per unit area [1, 12] [μg/cm^2] | Cumulative concentration per unit area [1, 13] [μg/cm^2] | Cumulative concentration per unit area [1, 14] [μg/cm^2] | Cumulative concentration per unit area [1, 15] [μg/cm^2] | Cumulative concentration per unit area [1, 16] [μg/cm^2] | transport compared with the permeation of lipophilic prodrugs diethyl cromoglycate and cetirizine ethyl ester [1] | mean lag times across shed snakeskin [1, 4] [h] | Compound | logP [2] |
| --- | --- | --- | --- | --- | --- | --- | --- | --- | --- | --- | --- | --- | --- | --- | --- | --- | --- | --- |
| 0.15 to 0.25 | – | – | – | – | – | – | – | – | – | – | – | – | – | – | – | – | CCOC(=O)COCCN1CCN(C(c2ccccc2)c2ccc(Cl)cc2)CC1 (stereo not drawn) [Cetirizine Ethyl Ester, reference compound] | – |
| – | 0 | 3.5-5 times | 5 | 15 | 25 | 30 | 45 | 50 | 73 | 80 | 93 | 98 | 112 | 119 | – | – | O=C(O)c1cc(=O)c2c(OCC(O)COc3cccc4oc(C(=O)O)cc(=O)c34)cccc2o1 [Cromoglicate Sodium, Cromoglicate sodium, reference compound] | −4.8 |
| – | 0 | – | 2 | 12 | 28 | 53 | 89 | 112 | 142 | 176 | 215 | 256 | 295 | 350 | lower | 0.55 to 1.15 | O=C(COCCN1CCN(C(c2ccccc2)c2ccc(Cl)cc2)CC1)OC(COc1cccc2oc(C(=O)O)cc(=O)c12)COc1cccc2oc(C(=O)O)cc(=O)c12 (stereo not drawn) [Example 3] | – |
| – | 0 | – | 23 | 55 | 95 | 145 | 195 | 235 | 256 | 320 | 390 | 435 | 470 | 495 | – | 0.15 to 0.25 | CCOC(=O)c1cc(=O)c2c(OCC(O)COc3cccc4oc(C(=O)OCC)cc(=O)c34)cccc2o1 [Example 50, Diethyl Cromoglicate] | – |
